Reference: ChEMBL document CHEMBL3769324, “Acetophenone derivatives: novel and potent small molecule inhibitors of monoamine oxidase B” (Medchemcomm, 2015)

Experiments:
Homo sapiens = species: Homo sapiens; experiment: Selectivity index, ratio of IC50 for human MAOA to IC50 for human MAOB
[1] = molecular target: T1, Amine oxidase [flavin-containing] B (Homo sapiens, UniProt P27338); experiment: Inhibition of human MAOB using p-tyramine as substrate after 15 mins by Amplex Red MAO assay
T1 sequence (P27338 whole entry): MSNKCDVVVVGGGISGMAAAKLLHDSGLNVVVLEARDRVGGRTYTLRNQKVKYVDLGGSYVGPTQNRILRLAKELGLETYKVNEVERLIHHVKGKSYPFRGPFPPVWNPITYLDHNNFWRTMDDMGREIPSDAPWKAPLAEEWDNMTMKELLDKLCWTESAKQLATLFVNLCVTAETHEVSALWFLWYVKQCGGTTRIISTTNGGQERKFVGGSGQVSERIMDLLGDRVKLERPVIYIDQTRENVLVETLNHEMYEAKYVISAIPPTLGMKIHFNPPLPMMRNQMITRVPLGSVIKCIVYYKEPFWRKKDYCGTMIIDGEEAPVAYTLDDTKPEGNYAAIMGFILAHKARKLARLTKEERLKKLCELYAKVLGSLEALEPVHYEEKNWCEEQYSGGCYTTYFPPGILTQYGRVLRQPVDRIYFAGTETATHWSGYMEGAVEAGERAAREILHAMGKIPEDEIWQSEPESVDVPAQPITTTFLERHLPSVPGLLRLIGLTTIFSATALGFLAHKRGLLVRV

[2] = molecular target: T2, Amine oxidase [flavin-containing] A (Homo sapiens, UniProt P21397); experiment: Inhibition of human MAOA using p-tyramine as substrate after 15 mins by Amplex Red MAO assay
T2 sequence (P21397 whole entry): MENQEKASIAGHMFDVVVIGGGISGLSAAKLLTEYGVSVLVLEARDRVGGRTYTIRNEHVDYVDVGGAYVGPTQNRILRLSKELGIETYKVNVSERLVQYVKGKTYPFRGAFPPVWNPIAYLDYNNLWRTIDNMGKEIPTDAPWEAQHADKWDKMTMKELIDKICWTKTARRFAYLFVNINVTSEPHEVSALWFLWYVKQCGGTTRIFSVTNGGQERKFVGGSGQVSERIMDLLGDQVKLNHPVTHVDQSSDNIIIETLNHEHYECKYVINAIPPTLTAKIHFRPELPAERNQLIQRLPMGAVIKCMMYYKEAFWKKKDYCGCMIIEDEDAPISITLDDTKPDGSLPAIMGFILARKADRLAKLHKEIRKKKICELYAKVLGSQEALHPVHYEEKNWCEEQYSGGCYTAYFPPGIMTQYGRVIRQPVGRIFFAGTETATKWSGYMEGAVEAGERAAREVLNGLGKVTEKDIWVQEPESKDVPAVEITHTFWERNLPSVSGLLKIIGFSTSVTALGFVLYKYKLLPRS

[3] = molecular target: T2, Amine oxidase [flavin-containing] A; experiment: Inhibition of human MAOA using p-tyramine as substrate at 100 uM after 15 mins by Amplex Red MAO assay; details: 0.25 h
[4] = molecular target: T1, Amine oxidase [flavin-containing] B; experiment: Reversible inhibition of human MAOB using p-tyramine as substrate preincubated for 60 mins
[5] = molecular target: T1, Amine oxidase [flavin-containing] B; experiment: Inhibition of MAOB (unknown origin)
[6] = molecular target: T2, Amine oxidase [flavin-containing] A; experiment: Inhibition of MAOA (unknown origin)
[7] = molecular target: T1, Amine oxidase [flavin-containing] B; experiment: Competitive inhibition of human MAOB using 50 to 500 uM of p-tyramine as substrate up to 20 nM by Lineweaver-Burk plot analysis
SH-SY5Y = experiment: Neurotoxicity against human SH-SY5Y cells assessed as cell viability at 3 to 50 uM after 48 hrs by MTT assay; assay type: toxicity, cell-based

Ratio IC50 (Homo sapiens) | IC50 [1] | inhibition at 100 µM [3] | SMILES | also measured
1180 | 75.4 nM | – | CC(=O)c1cccc(OCc2ccc([N+](=O)[O-])cc2)c1 | IC50 [2]: 88.3 µM
> 714 | 140 nM | 23% | CC(=O)c1cccc(OCc2ccc(C)cc2)c1 | –
> 3660 | 27.3 nM | 45.7% | CC(=O)c1ccc(OCc2ccc(F)cc2F)cc1 | –
> 352 | 284 nM | 34% | CC(=O)c1ccc(OCc2ccccc2[N+](=O)[O-])cc1 | inhibition (INH) [4]: Active
288 | 311 nM | – | CC(=O)c1ccc(OCc2ccccc2Cl)cc1 | IC50 [2]: 89.6 µM
> 909 | 110 nM | 8.19% | CC(=O)c1ccc(OCc2ccccc2)cc1 | –
> 1300 | 77.1 nM | 42.9% | CC(=O)c1ccc(OCc2ccccc2C)cc1 | –
1370 | 34.2 nM | – | CC(=O)c1cccc(OCc2cccc(Cl)c2)c1 | IC50 [2]: 46.8 µM
– | – | – | O=C1CCCc2cc(OCc3ccc(I)cc3)ccc21 | IC50 [5]: 4.5 nM; IC50 [6]: 1.29 µM
> 1170 | 85.6 nM | 23.2% | CC(=O)c1ccc(OCc2ccc(Br)cc2)cc1 | –
385 | 183 nM | – | CC(=O)c1ccc(OCc2ccccc2C(F)(F)F)cc1 | IC50 [2]: 70.5 µM
> 1280 | 77.8 nM | 26.4% | CC(=O)c1ccc(OCc2ccc(C(F)(F)F)cc2)cc1 | –
> 1760 | 56.9 nM | 47.1% | CC(=O)c1ccc(OCc2ccccc2F)cc1 | –
> 51.3 | 1950 nM | 31% | CC(=O)c1cccc(OCc2ccccc2)c1 | –
– | – | – | CC(=O)c1cccc(OCc2ccc(Br)cc2)c1 | IC50 [2]: 48.7 µM
> 1720 | 58.2 nM | 48.9% | CC(=O)c1ccc(OCc2cccc(C(F)(F)F)c2)cc1 | –
– | – | – | CC(=O)c1cccc(OCc2ccc(Cl)cc2)c1 | Activity [7]: Active; IC50 [2]: 39.7 µM; Activity (SH-SY5Y): Non-toxic
> 1160 | 86.3 nM | 32.3% | CC(=O)c1ccc(OCc2cccc(C)c2)cc1 | –
– | – | 43.5% | CC(=O)c1ccc(OCc2ccc(F)cc2)cc1 | Activity [7]: Active; Activity (SH-SY5Y): Non-toxic

Ratio IC50 (Homo sapiens) | IC50 [1] | inhibition at 100 µM [3] | SMILES | also measured
– | – | – | C#CCNCc1cc2cc(OCc3ccccc3)ccc2[nH]1 | IC50 [5]: 11 nM; IC50 [6]: 0.79 µM
> 1040 | 96.3 nM | 49.1% | CC(=O)c1cccc(OCc2cccc(Br)c2)c1 | –
> 1190 | 84.1 nM | 44.3% | CC(=O)c1ccc(OCc2cc(F)c(F)c(F)c2)cc1 | –
1480 | 63.2 nM | – | CC(=O)c1ccc(OCc2ccc(Cl)cc2)cc1 | IC50 [2]: 93.6 µM
> 1200 | 83.1 nM | 48.4% | CC(=O)c1ccc(OCc2cccc(F)c2)cc1 | –
> 1040 | 96.5 nM | 33.8% | CC(=O)c1ccc(OCc2ccc([N+](=O)[O-])cc2)cc1 | –
– | – | – | CC(=O)c1ccc(OCc2cccc(Cl)c2)cc1 | IC50 [2]: 83.3 µM
> 1160 | 86.4 nM | 49.6% | CC(=O)c1cccc(OCc2ccc(F)cc2)c1 | –
> 518 | 193 nM | 31% | CC(=O)c1cccc(OCc2cccc(F)c2)c1 | –
> 467 | 214 nM | 48.3% | CC(=O)c1ccc(OCc2cccc(Br)c2)cc1 | –
– | – | – | O=C1CCc2ccc(OCc3ccc(Br)cc3)cc2N1 | IC50 [5]: 2.9 nM; IC50 [6]: 7.98 µM
> 2320 | 43.2 nM | 27.2% | CC(=O)c1cccc(OCc2ccc(C(F)(F)F)cc2)c1 | –
> 112 | 893 nM | 31.1% | CC(=O)c1cccc(OCc2cccc(C)c2)c1 | –
> 980 | 102 nM | 5.96% | CC(=O)c1ccc(OCc2ccc(C)cc2)cc1 | –
> 4720 | 21.2 nM | 46.7% | CC(=O)c1cccc(OCc2cccc(C(F)(F)F)c2)c1 | inhibition (INH) [4]: Active
1150 | 67.9 nM | – | CC(=O)c1ccc(OCc2ccc(F)c(F)c2)cc1 | IC50 [2]: 78.3 µM
493 | 104 nM | – | CC(=O)c1ccc(OCc2cccc([N+](=O)[O-])c2)cc1 | IC50 [2]: 51.3 µM
– | – | – | CC(=O)c1ccc(OCc2ccc(Br)cc2)cc1O | IC50 [5]: 4 nM; IC50 [6]: 15.8 µM
> 877 | 114 nM | 17.8% | CC(=O)c1cccc(OCc2cccc([N+](=O)[O-])c2)c1 | –

SMILES | Ratio IC50 (Homo sapiens) | IC50 [1] | inhibition at 100 µM [3] | also measured
C[C@H](NCc1ccc(OCc2cccc(F)c2)cc1)C(N)=O [SAFINAMIDE] | – | – | 9.74% | –
